Experiment [1] deals with T1, Proto-oncogene tyrosine-protein kinase ROS (Homo sapiens, UniProt P08922). In words: Inhibition of ROS1 (unknown origin) incubated for 1 hr by HTRF assay. For orientation: Time-resolved FRET reads energy transfer from a long-lived donor to a nearby acceptor.
The target of experiment [2] is T2, ALK tyrosine kinase receptor (Homo sapiens, UniProt Q9UM73). Description: Inhibition of ALK (unknown origin) incubated for 1 hr by HTRF assay.
For a further experiment, the target named is T3, TGF-beta receptor type-1 (Homo sapiens, UniProt P36897).
T3 sequence (P36897 whole entry): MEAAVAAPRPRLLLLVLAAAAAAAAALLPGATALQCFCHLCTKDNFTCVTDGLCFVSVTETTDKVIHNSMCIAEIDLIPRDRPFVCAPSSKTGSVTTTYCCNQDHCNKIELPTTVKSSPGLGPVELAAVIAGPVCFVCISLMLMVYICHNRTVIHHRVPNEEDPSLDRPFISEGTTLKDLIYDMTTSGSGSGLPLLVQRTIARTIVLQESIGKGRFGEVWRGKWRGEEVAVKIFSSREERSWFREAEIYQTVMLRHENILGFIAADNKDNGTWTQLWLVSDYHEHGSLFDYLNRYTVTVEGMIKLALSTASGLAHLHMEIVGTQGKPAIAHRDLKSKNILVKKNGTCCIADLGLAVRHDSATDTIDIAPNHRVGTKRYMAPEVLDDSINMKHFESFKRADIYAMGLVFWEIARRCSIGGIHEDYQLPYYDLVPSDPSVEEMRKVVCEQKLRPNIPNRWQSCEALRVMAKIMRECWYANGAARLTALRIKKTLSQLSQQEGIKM
In words: Inhibition of human […] using Casein as substrate incubated for 120 mins in presence of [gamma-33P]-ATP.

Experiment [3] addresses T4, Proto-oncogene tyrosine-protein kinase ROS (Homo sapiens, UniProt P08922, G2032R). In words: Inhibition of human ROS1 G2032R mutant using KKKSPGEYVNIEFG as substrate incubated for 120 mins in presence of [gamma-33P]-ATP.
A short description of experiment [4]: Inhibition of human […] G1202R mutant using Casein as substrate incubated for 120 mins in presence of [gamma-33P]-ATP.
Experiment [5] has as its target T1, Proto-oncogene tyrosine-protein kinase ROS. In words: Inhibition of human ROS1 using KKKSPGEYVNIEFG as substrate incubated for 120 mins in presence of [gamma-33P]-ATP.
Another experiment relates to NCI-H2228. In words: Cytotoxicity against human NCI-H2228 cells incubated for 72 hrs by MTT assay. The settings on record: NCI-H2228, 72 h. The experiment is classed as functional, cell-based.
In a further experiment the test system is HCC78. In words: Cytotoxicity against human HCC78 cells incubated for 72 hrs by MTT assay. Format: functional, cell-based.
The target of experiment [6] is T4, Proto-oncogene tyrosine-protein kinase ROS. In words: Inhibition of recombinant human ROS1 G2032R mutant preincubated for 5 to 10 mins followed by substrate and ATP addition and measured after 60 mins by TR-FRET assay.
In experiment [7] the target is T2, ALK tyrosine kinase receptor. In words: Inhibition of human ALK preincubated for 5 to 10 mins followed by substrate and ATP addition and measured after 60 mins by TR-FRET assay.
Experiment [8] deals with T1, Proto-oncogene tyrosine-protein kinase ROS. In words: Inhibition of recombinant human ROS1 preincubated for 5 to 10 mins followed by substrate and ATP addition and measured after 60 mins by TR-FRET assay.
In experiment [9] the target is ALK tyrosine kinase receptor (Homo sapiens, UniProt Q9UM73, G1202R/L1196M). Description: Inhibition of human ALK L1196M/G1202R double mutant preincubated for 5 to 10 mins followed by substrate and ATP addition and measured after 60 mins by TR-FRET assay.
The target of experiment [10] is T2, ALK tyrosine kinase receptor. In words: Inhibition of wild type ALK (unknown origin) expressed in BaF3 cells incubated for 4 hrs. The experiment is classed as cell-based.
Experiment [11] deals with T1, Proto-oncogene tyrosine-protein kinase ROS. Description: Inhibition of wild type ROS1 (unknown origin) expressed in BaF3 cells incubated for 4 hrs. Format: cell-based.
The target in experiment [12] is T2, ALK tyrosine kinase receptor. In words: Inhibition of wild-type ALK (unknown origin).
The test system of experiment [13] is BaF3. Description: Antitumor activity against mouse BaF3 cells harboring ROS1 G2032 mutant assessed as tumor growth inhibition at 2.2 nM. Format: functional. The arrangement: scale not given: the % may be the effect or the level left.
For experiment [14], the system named is BaF3. In words: Antitumor activity against mouse BaF3 cells harboring EML4 ALK V1 G1202R mutant assessed as tumor growth inhibition at 2.2 nM. Format: functional. The arrangement: scale not given: the % may be the effect or the level left.
Experiment [15] has as its system BaF3. Description: Antitumor activity against mouse BaF3 cells harboring wild type ROS1 assessed as tumor growth inhibition at 2.2 nM. The experiment is classed as functional. The arrangement: scale not given: the % may be the effect or the level left.

This passage reports IC50 and Activity results from ChEMBL document CHEMBL5620350, “Recent advances in the development of dual ALK/ROS1 inhibitors for non-small cell lung cancer therapy” (Eur J Med Chem, 2023).

A word on the IC50: it is the concentration needed to halve the response being measured.

T1 sequence (P08922 whole entry): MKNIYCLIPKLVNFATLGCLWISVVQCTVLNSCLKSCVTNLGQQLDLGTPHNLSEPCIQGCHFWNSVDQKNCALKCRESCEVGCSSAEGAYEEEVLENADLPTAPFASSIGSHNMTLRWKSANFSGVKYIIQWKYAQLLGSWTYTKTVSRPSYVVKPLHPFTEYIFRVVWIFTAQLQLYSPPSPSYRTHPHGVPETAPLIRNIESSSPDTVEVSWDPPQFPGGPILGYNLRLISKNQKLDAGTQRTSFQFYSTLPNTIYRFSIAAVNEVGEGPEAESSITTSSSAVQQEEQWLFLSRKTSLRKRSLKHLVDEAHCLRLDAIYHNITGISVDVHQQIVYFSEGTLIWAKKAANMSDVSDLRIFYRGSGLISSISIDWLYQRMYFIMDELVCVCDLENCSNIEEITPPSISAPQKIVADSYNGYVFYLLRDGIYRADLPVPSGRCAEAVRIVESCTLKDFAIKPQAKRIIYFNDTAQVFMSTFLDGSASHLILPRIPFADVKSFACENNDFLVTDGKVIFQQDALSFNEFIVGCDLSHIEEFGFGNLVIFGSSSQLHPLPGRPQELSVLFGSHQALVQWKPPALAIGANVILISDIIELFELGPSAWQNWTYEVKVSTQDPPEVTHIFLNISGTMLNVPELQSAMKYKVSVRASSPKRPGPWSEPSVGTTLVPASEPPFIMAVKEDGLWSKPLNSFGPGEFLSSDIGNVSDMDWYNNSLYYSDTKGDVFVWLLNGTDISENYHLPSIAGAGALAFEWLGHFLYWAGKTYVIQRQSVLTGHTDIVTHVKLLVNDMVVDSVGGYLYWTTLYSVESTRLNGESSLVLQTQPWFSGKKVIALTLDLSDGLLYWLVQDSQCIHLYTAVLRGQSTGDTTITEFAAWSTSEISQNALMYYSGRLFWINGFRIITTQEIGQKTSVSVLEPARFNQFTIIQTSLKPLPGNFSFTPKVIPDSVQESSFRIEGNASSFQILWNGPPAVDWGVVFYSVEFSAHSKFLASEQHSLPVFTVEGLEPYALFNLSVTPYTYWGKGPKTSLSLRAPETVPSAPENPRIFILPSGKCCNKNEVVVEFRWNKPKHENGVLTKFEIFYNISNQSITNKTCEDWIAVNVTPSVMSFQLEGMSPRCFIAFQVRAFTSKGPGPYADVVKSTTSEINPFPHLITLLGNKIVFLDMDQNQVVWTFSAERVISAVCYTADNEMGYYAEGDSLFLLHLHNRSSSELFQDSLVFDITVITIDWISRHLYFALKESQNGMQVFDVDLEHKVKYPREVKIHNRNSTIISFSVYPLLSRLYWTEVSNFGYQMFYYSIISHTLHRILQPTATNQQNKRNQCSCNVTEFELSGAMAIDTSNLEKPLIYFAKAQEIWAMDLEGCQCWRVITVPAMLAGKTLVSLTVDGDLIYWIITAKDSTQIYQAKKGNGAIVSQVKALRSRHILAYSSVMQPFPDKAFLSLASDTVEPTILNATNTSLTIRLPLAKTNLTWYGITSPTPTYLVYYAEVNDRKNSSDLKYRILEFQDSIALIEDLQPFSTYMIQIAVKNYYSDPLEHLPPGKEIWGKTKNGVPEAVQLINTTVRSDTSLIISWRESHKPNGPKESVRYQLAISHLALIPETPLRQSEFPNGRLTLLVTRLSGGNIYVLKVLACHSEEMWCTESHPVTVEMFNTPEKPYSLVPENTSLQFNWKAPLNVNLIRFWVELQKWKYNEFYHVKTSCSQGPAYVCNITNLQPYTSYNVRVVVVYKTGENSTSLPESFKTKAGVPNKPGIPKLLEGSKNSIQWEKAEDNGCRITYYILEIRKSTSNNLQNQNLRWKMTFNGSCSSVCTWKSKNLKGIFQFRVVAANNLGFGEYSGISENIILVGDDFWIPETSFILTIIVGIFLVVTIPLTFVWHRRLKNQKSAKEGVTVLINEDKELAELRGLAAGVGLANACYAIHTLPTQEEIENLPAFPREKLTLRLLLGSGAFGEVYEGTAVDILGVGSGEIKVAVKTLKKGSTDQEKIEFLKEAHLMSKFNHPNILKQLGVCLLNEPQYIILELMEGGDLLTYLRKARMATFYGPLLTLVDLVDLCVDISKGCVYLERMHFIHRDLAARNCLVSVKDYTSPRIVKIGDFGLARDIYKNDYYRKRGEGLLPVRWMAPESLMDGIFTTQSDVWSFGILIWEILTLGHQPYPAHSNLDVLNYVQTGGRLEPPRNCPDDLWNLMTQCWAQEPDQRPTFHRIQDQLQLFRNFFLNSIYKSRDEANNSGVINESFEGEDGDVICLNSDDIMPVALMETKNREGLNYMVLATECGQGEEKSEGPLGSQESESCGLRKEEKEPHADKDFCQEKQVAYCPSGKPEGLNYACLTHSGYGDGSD
T4 sequence (P08922 28-2347 G2032R limits assumed): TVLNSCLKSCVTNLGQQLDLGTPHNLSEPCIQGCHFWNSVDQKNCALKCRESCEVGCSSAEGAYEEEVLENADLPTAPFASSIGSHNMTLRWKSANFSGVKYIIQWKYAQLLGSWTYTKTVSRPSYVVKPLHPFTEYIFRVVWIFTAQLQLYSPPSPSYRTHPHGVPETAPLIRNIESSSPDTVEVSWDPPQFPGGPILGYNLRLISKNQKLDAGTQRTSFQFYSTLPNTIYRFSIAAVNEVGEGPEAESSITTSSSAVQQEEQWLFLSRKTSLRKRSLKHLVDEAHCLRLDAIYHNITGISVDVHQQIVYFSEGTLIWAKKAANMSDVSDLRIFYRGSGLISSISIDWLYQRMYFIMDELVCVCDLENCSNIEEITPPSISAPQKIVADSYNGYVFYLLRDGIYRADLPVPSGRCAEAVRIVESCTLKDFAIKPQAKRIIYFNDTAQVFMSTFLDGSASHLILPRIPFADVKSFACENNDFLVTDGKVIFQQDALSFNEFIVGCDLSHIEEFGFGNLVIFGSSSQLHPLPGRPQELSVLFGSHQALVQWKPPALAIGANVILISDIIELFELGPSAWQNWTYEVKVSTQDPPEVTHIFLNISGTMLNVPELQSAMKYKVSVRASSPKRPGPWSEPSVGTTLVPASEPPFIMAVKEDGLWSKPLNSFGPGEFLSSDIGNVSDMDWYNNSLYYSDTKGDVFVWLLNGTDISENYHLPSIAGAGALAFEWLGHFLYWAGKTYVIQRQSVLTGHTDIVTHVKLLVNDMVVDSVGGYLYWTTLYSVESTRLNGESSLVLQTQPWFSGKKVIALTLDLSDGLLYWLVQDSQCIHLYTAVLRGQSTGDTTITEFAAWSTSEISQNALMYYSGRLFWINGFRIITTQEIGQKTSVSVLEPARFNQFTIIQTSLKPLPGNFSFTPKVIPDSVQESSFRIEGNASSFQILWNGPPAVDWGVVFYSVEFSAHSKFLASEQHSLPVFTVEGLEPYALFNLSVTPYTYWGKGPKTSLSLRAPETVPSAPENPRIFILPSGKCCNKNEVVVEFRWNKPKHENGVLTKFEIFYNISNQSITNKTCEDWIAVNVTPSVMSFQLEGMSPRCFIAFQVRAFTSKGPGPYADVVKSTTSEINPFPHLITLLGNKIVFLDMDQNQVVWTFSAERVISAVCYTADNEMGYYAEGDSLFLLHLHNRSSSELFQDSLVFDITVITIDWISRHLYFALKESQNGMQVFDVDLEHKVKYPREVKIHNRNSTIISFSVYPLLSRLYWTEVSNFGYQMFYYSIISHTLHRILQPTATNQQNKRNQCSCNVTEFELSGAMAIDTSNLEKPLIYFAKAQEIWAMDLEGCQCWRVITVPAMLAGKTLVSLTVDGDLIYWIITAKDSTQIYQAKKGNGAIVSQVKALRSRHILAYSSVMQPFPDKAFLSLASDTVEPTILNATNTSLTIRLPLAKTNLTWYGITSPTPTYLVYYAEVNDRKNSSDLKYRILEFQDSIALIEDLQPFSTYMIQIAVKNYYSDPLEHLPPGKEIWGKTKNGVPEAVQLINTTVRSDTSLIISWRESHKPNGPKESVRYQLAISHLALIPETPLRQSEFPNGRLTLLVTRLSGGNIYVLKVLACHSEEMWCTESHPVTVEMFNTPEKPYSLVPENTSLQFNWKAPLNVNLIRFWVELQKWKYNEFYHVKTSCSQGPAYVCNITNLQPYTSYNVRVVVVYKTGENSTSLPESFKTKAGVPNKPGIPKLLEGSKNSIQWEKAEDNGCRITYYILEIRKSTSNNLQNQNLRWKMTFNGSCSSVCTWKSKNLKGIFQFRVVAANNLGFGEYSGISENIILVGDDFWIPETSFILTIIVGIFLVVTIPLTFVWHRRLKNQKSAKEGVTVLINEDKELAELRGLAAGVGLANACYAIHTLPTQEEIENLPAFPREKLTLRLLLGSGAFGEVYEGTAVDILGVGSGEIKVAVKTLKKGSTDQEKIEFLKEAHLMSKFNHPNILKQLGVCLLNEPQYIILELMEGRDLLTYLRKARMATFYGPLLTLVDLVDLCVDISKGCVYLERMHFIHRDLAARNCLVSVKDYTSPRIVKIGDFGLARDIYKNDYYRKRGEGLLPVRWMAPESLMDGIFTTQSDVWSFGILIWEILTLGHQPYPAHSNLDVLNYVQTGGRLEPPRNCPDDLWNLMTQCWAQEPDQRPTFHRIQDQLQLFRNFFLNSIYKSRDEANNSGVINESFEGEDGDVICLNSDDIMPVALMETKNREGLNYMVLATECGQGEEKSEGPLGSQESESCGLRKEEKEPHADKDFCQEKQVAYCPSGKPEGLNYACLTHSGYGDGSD

As for `COc1cc(-n2cccc2CN2CCN(C)CC2)ccc1Nc1ncc(Cl)c(Nc2ccccc2NS(C)(=O)=O)n1`, the IC50 in experiment [1] was determined as 3.6 nM; in experiment [2], 1.8 nM.
Regarding `COc1ccc(F)cc1[C@@H](C)Nc1ccn2ncc(C3=NOC(C)(C)N3)c2n1`, the IC50 was below 50 nM on TGF-beta receptor type-1, below 0.5 nM in experiment [3], below 50 nM in [4] and below 0.5 nM in [5].
`COc1ccc(CNC(=O)Cn2nc(-c3ccccc3)c3cnc4ccccc4c32)cc1`: the IC50 in the experiment with NCI-H2228 turned out to be 2710 nM; in the experiment on HCC78 (Homo sapiens, HCC78, 72 h), 1620 nM; with HCC78 (hcc78), 1610 nM.
With `CCOc1ccc(F)cc1[C@@H](C)Nc1ccn2ncc(C3=NOC(C)N3)c2n1` (some centres not stated), the IC50 at TGF-beta receptor type-1 is below 50 nM; in experiment [3], below 0.5 nM; in [4], below 50 nM; in experiment [5], below 0.5 nM.
On to `C[C@H]1Nc2ccn3ncc(c3n2)C(=O)N[C@@]2(C)CC3=CC(F)=CC1C3O2` (some centres not stated), for which the IC50 in experiment [6] worked out at 0.34 nM; in experiment [7] it was 2.02 nM; in [8] it was 0.84 nM; in experiment [9], 20.7 nM.
Regarding `C[C@H]1Nc2ccn3ncc(c3n2)C(=O)NC[C@@H](CF)Oc2ccc(F)cc21`, the 50% inhibitory concentration (IC50) in [10] and in [11] was 2 nM throughout.
As for `CC(C)Oc1ccc(F)cc1[C@@H](C)Nc1ccn2ncc(C3=NOC(C)N3)c2n1` (some centres not stated), the half-maximal inhibitory concentration (IC50) at TGF-beta receptor type-1 was below 50 nM; in [3] it was below 0.5 nM; in experiment [4], below 50 nM; in [5], below 0.5 nM.
On to `O=C(Nc1n[nH]c2ncc(S(=O)(=O)c3cccc(F)c3)cc12)c1ccc(N2CCOCC2)cc1`, for which the IC50 in experiment [12] was determined as 0.6 nM.
As to `C[C@H]1CNC(=O)c2cnn3ccc(nc23)N[C@H](C)c2cc(F)ccc2O1` [REPOTRECTINIB], the Activity in the experiment on BaF3 [13] was determined as 99%; in the experiment on BaF3 [14] it was 99%; in the experiment with BaF3 [15], 197%.
